In PubChem BioAssay (NCI):
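Growth conditions: 96-well plates. Treatment: test compound, 48 hours, 5 concentrations. Analysis: linear interpolation between bracketing concentrations; unreached endpoints set to highest concentration. GI50 = concentration required for 50% inhibition of growth. Definition used: TGI = concentration required for complete inhibition of growth.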

Experiments:
Test in all cases: growth of human tumour cells (NCI), 48 h
CAKI-1 renal = tested on: CAKI-1 renal
PC-3 prostate = tested on: PC-3 prostate
HS 578T breast = tested on: HS 578T breast
OVCAR-3 ovarian = tested on: OVCAR-3 ovarian
COLO 205 colon = tested on: COLO 205 colon
MDA-MB-435 = tested on: MDA-MB-435
SK-MEL-5 melanoma = tested on: SK-MEL-5 melanoma
SK-MEL-28 melanoma = tested on: SK-MEL-28 melanoma
SF-268 CNS = tested on: SF-268 CNS
IGROV1 ovarian = tested on: IGROV1 ovarian
EKVX NSCLC = tested on: EKVX NSCLC
OVCAR-8 ovarian = tested on: OVCAR-8 ovarian
A498 renal = tested on: A498 renal
NCI-H522 lung = tested on: NCI-H522 lung
HCC-2998 colon = tested on: HCC-2998 colon
SF-539 CNS = tested on: SF-539 CNS
U251 CNS = tested on: U251 CNS
OVCAR-4 ovarian = tested on: OVCAR-4 ovarian
UO-31 renal = tested on: UO-31 renal
SR leukemia = tested on: SR leukemia
BT-549 breast = tested on: BT-549 breast
DU-145 prostate = tested on: DU-145 prostate
LOX IMVI melanoma = tested on: LOX IMVI melanoma
MDA-MB-231 breast = tested on: MDA-MB-231 breast
HOP-92 NSCLC = tested on: HOP-92 NSCLC
CCRF-CEM leukemia = tested on: CCRF-CEM leukemia
HL-60(TB) leukemia = tested on: HL-60(TB) leukemia
NCI-H226 lung = tested on: NCI-H226 lung
HOP-62 NSCLC = tested on: HOP-62 NSCLC
SNB-19 CNS = tested on: SNB-19 CNS
SN12C renal = tested on: SN12C renal
MALME-3M melanoma = tested on: MALME-3M melanoma
M14 melanoma = tested on: M14 melanoma
NCI-H23 lung = tested on: NCI-H23 lung
NCI/ADR-RES ovarian = tested on: NCI/ADR-RES ovarian
786-0 renal = tested on: 786-0 renal
HCT-116 colon = tested on: HCT-116 colon
SW-620 colon = tested on: SW-620 colon
OVCAR-5 ovarian = tested on: OVCAR-5 ovarian
T-47D breast = tested on: T-47D breast
ACHN renal = tested on: ACHN renal
TK-10 renal = tested on: TK-10 renal
KM12 colon = tested on: KM12 colon
RPMI-8226 leukemia = tested on: RPMI-8226 leukemia
MOLT-4 leukemia = tested on: MOLT-4 leukemia
NCI-H460 lung = tested on: NCI-H460 lung
A549 NSCLC = tested on: A549 NSCLC
HT29 colon = tested on: HT29 colon
RXF 393 renal = tested on: RXF 393 renal
UACC-257 melanoma = tested on: UACC-257 melanoma
K-562 leukemia = tested on: K-562 leukemia
HCT-15 colon = tested on: HCT-15 colon
SNB-75 CNS = tested on: SNB-75 CNS
SK-OV-3 ovarian = tested on: SK-OV-3 ovarian
SF-295 CNS = tested on: SF-295 CNS
MCF7 breast = tested on: MCF7 breast
UACC-62 melanoma = tested on: UACC-62 melanoma

## CC(C)(C)c1ccc(OCCCCCCN2CCNCC2)cc1
CAKI-1 renal
  GI50: 4.72 µM
  TGI: 17 µM
PC-3 prostate
  GI50: 8.28 µM
  TGI: 24.4 µM
HS 578T breast
  GI50: 6.15 µM
  TGI: 25.1 µM
OVCAR-3 ovarian
  GI50: 7.38 µM
  TGI: 20.8 µM
COLO 205 colon
  GI50: 1.95 µM
  TGI: 4.09 µM
MDA-MB-435
  GI50: 3.17 µM
  TGI: 11.9 µM
SK-MEL-5 melanoma
  GI50: 1.87 µM
  TGI: 3.49 µM
SK-MEL-28 melanoma
  GI50: 3.23 µM
  TGI: 11.4 µM
SF-268 CNS
  GI50: 10.7 µM
  TGI: 24.4 µM
IGROV1 ovarian
  GI50: 6.34 µM
  TGI: 22.6 µM
EKVX NSCLC
  GI50: 10.2 µM
  TGI: 24.2 µM
OVCAR-8 ovarian
  GI50: 14.6 µM
  TGI: 33.5 µM
A498 renal
  GI50: 9.44 µM
  TGI: 23.1 µM
NCI-H522 lung
  GI50: 13.6 µM
  TGI: 31.7 µM
HCC-2998 colon
  GI50: 2.38 µM
  TGI: 4.62 µM
SF-539 CNS
  GI50: 5.98 µM
  TGI: 20.6 µM
U251 CNS
  GI50: 3.32 µM
  TGI: 13.2 µM
OVCAR-4 ovarian
  GI50: 9.46 µM
  TGI: 23.9 µM
UO-31 renal
  GI50: 12.2 µM
  TGI: 25.6 µM
SR leukemia
  GI50: 2.04 µM
  TGI: 5.85 µM
BT-549 breast
  GI50: 10.5 µM
  TGI: 27.1 µM
DU-145 prostate
  GI50: 10.5 µM
  TGI: 23.2 µM
LOX IMVI melanoma
  GI50: 1.83 µM
  TGI: 3.66 µM
MDA-MB-231 breast
  GI50: 2.53 µM
  TGI: 7.97 µM
HOP-92 NSCLC
  GI50: 3.31 µM
  TGI: 19.7 µM
CCRF-CEM leukemia
  GI50: 2.88 µM
  TGI: 12 µM
HL-60(TB) leukemia
  GI50: 1.98 µM
  TGI: 4.32 µM
NCI-H226 lung
  GI50: 15.3 µM
  TGI: 34.3 µM
HOP-62 NSCLC
  GI50: 11 µM
  TGI: 25.8 µM
SNB-19 CNS
  GI50: 8.06 µM
  TGI: 24.4 µM
SN12C renal
  GI50: 11.7 µM
  TGI: 27.8 µM
MALME-3M melanoma
  GI50: 3.27 µM
  TGI: 13.1 µM
M14 melanoma
  GI50: 3.22 µM
  TGI: 13.5 µM
NCI-H23 lung
  GI50: 7.59 µM
  TGI: 23 µM
NCI/ADR-RES ovarian
  GI50: 14.3 µM
  TGI: 33.7 µM
786-0 renal
  GI50: 3.34 µM
  TGI: 11.6 µM
HCT-116 colon
  GI50: 3.18 µM
  TGI: 13.9 µM
SW-620 colon
  GI50: 2.14 µM
  TGI: 5.19 µM
OVCAR-5 ovarian
  GI50: 13.7 µM
  TGI: 29.4 µM
T-47D breast
  GI50: 2.22 µM
  TGI: 5.94 µM
ACHN renal
  GI50: 5.01 µM
  TGI: 17.5 µM
TK-10 renal
  GI50: 13.9 µM
  TGI: 27.8 µM
KM12 colon
  GI50: 3.89 µM
  TGI: 13.8 µM
RPMI-8226 leukemia
  GI50: 2.5 µM
  TGI: 6.46 µM
MOLT-4 leukemia
  GI50: 1.82 µM
  TGI: 5.07 µM
NCI-H460 lung
  GI50: 3.21 µM
  TGI: 11.4 µM
A549 NSCLC
  GI50: 6.95 µM
  TGI: 21.2 µM
HT29 colon
  GI50: 2.64 µM
  TGI: 10.5 µM
RXF 393 renal
  GI50: 1.91 µM
  TGI: 4.12 µM
UACC-257 melanoma
  GI50: 10.5 µM
  TGI: 22.9 µM
K-562 leukemia
  GI50: 1.75 µM
  TGI: 4.48 µM
HCT-15 colon
  GI50: 3.04 µM
  TGI: 10 µM
SNB-75 CNS
  GI50: 3.12 µM
  TGI: 16 µM
SK-OV-3 ovarian
  GI50: 10.9 µM
  TGI: 24.7 µM
SF-295 CNS
  GI50: 8.82 µM
  TGI: 22.3 µM
MCF7 breast
  GI50: 3.03 µM
  TGI: 10.3 µM
UACC-62 melanoma
  GI50: 2.33 µM
  TGI: 5.77 µM
